# From ChEMBL document CHEMBL3244274, “Antiallergic 9-oxo-11-hydroxy-5H,9H-[2]benzopyrano[4,3-g][1]benzopyrans” (J Med Chem, 1978)
# System: Rattus norvegicus
# Assay: Antiallergic activity in adrenalectomized Sprague-Dawley rat assessed as inhibition of egg albumin-induced passive cutaneous anaphylaxis reaction at 3 mg/kg, iv after 30 mins by Evans blue staining
# Type: functional
# Details: 0.5 h
row,SMILES,inhibition in vivo at 3 mg/kg [%]
1,CN1CCC(=C2c3ccccc3C=Cc3ccccc32)CC1 [CYPROHEPTADINE],30

# System: Rattus norvegicus
# Assay: Antiallergic activity in iv dosed adrenalectomized Sprague-Dawley rat assessed as inhibition of egg albumin-induced passive cutaneous anaphylaxis reaction after 30 mins by Evans blue staining
# Type: functional
# Details: 0.5 h
row,SMILES,ED50 [mg/kg]
1,CC1(C)Oc2cc3oc(C(=O)O)cc(=O)c3cc2-c2ccccc21.NCCO,0.5
2,COc1ccc2c(c1)C(C)(C)Oc1cc3oc(=O)cc([O-])c3cc1-2.[Na+],9
3,O=C([O-])c1cc(=O)c2c(OCC(O)COc3cccc4oc(C(=O)[O-])cc(=O)c34)cccc2o1.[Na+].[Na+] [CROMOLYN SODIUM],2.9
4,CC1(C)Oc2cc3oc(=O)cc([O-])c3cc2-c2ccc(OCCO)cc21.[Na+],0.3

# System: Rattus norvegicus
# Assay: Toxicity in adrenalectomized Sprague-Dawley rat at 10 mg/kg, iv
# Type: organism-based
# Set-up: dose 10 mg/kg, route intravenous
# Details: in vivo
row,SMILES,Activity
1,CN1CCC(=C2c3ccccc3C=Cc3ccccc32)CC1 [CYPROHEPTADINE],Toxic

# System: Ileum
# Assay: Antiallergic activity in guinea pig ileum strips assessed as inhibition of bradykinin-induced anaphylaxis
# Type: functional, tissue-based
# Details: Cavia porcellus
row,SMILES,EC50 [µg/mL]
1,CC1(C)Oc2cc3oc(C(=O)O)cc(=O)c3cc2-c2ccccc21.NCCO,145
2,COc1ccc2c(c1)C(C)(C)Oc1cc3oc(=O)cc([O-])c3cc1-2.[Na+],9.2
3,CN1CCC(=C2c3ccccc3C=Cc3ccccc32)CC1 [CYPROHEPTADINE],2
4,O=C([O-])c1cc(=O)c2c(OCC(O)COc3cccc4oc(C(=O)[O-])cc(=O)c34)cccc2o1.[Na+].[Na+] [CROMOLYN SODIUM],> 200
5,COc1cc2c(cc1Br)-c1cc3c([O-])cc(=O)oc3cc1OC2(C)C.[Na+],51
6,CC1(C)Oc2cc3oc(=O)cc([O-])c3cc2-c2ccc(O)cc21.[Na+],84
7,CC1(C)Oc2cc3oc(=O)cc([O-])c3cc2-c2ccc(Cl)cc21.[Na+],5.3
8,CC1(C)Oc2cc3oc(=O)cc([O-])c3cc2-c2ccccc21.[Na+],17
9,Cc1c2c(cc3oc(=O)cc([O-])c13)OC(C)(C)c1ccccc1-2.[Na+],17.5
10,CC1(C)Oc2cc3oc(=O)cc([O-])c3cc2-c2ccc(OCCO)cc21.[Na+],92
11,CCCOc1ccc2c(c1)C(C)(C)Oc1cc3oc(=O)cc([O-])c3cc1-2.[Na+],14

# System: Stomach
# Assay: Antiallergic activity in rat stomach strips assessed as inhibition of […]-induced anaphylaxis
# Type: functional, tissue-based
# Details: not given
row,SMILES,EC50 [µg/mL]
1,CC1(C)Oc2cc3oc(C(=O)O)cc(=O)c3cc2-c2ccccc21.NCCO,17
2,COc1ccc2c(c1)C(C)(C)Oc1cc3oc(=O)cc([O-])c3cc1-2.[Na+],23
3,CN1CCC(=C2c3ccccc3C=Cc3ccccc32)CC1 [CYPROHEPTADINE],65
4,O=C([O-])c1cc(=O)c2c(OCC(O)COc3cccc4oc(C(=O)[O-])cc(=O)c34)cccc2o1.[Na+].[Na+] [CROMOLYN SODIUM],> 200
5,COc1cc2c(cc1Br)-c1cc3c([O-])cc(=O)oc3cc1OC2(C)C.[Na+],14
6,CC1(C)Oc2cc3oc(=O)cc([O-])c3cc2-c2ccc(O)cc21.[Na+],47
7,CC1(C)Oc2cc3oc(=O)cc([O-])c3cc2-c2ccccc21.[Na+],26
8,CC1(C)Oc2cc3oc(=O)cc([O-])c3cc2-c2ccc(OCCO)cc21.[Na+],16

# System: Stomach
# Assay: Antiallergic activity in rat stomach strips assessed as inhibition of PGE2-induced anaphylaxis at 25 ug/ml
# Type: functional
# Details: not given
row,SMILES,inhibition at 25 µg/mL [%]
1,CN1CCC(=C2c3ccccc3C=Cc3ccccc32)CC1 [CYPROHEPTADINE],54

# System: Stomach
# Assay: Antiallergic activity in rat stomach strips assessed as inhibition of PGE2-induced anaphylaxis
# Type: functional, tissue-based
# Details: not given
row,SMILES,EC50 [µg/mL]
1,CC1(C)Oc2cc3oc(C(=O)O)cc(=O)c3cc2-c2ccccc21.NCCO,70
2,COc1ccc2c(c1)C(C)(C)Oc1cc3oc(=O)cc([O-])c3cc1-2.[Na+],68
3,CN1CCC(=C2c3ccccc3C=Cc3ccccc32)CC1 [CYPROHEPTADINE],25
4,O=C([O-])c1cc(=O)c2c(OCC(O)COc3cccc4oc(C(=O)[O-])cc(=O)c34)cccc2o1.[Na+].[Na+] [CROMOLYN SODIUM],> 200
5,COc1cc2c(cc1Br)-c1cc3c([O-])cc(=O)oc3cc1OC2(C)C.[Na+],55
6,CC1(C)Oc2cc3oc(=O)cc([O-])c3cc2-c2ccc(O)cc21.[Na+],40
7,CC1(C)Oc2cc3oc(=O)cc([O-])c3cc2-c2ccc(Cl)cc21.[Na+],45
8,CC1(C)Oc2cc3oc(=O)cc([O-])c3cc2-c2ccccc21.[Na+],56
9,CC1(C)Oc2cc3oc(=O)cc([O-])c3cc2-c2ccc(OCCO)cc21.[Na+],62
10,CCCOc1ccc2c(c1)C(C)(C)Oc1cc3oc(=O)cc([O-])c3cc1-2.[Na+],70

# System: Ileum
# Assay: Antiallergic activity in guinea pig ileum strips assessed as inhibition of serotonin-induced anaphylaxis
# Type: functional, tissue-based
# Details: Cavia porcellus
row,SMILES,EC50 [µg/mL]
1,CC1(C)Oc2cc3oc(C(=O)O)cc(=O)c3cc2-c2ccccc21.NCCO,92
2,COc1ccc2c(c1)C(C)(C)Oc1cc3oc(=O)cc([O-])c3cc1-2.[Na+],16
3,CN1CCC(=C2c3ccccc3C=Cc3ccccc32)CC1 [CYPROHEPTADINE],0.04
4,O=C([O-])c1cc(=O)c2c(OCC(O)COc3cccc4oc(C(=O)[O-])cc(=O)c34)cccc2o1.[Na+].[Na+] [CROMOLYN SODIUM],> 200
5,COc1cc2c(cc1Br)-c1cc3c([O-])cc(=O)oc3cc1OC2(C)C.[Na+],4.4
6,CC1(C)Oc2cc3oc(=O)cc([O-])c3cc2-c2ccc(O)cc21.[Na+],15
7,CC1(C)Oc2cc3oc(=O)cc([O-])c3cc2-c2ccc(Cl)cc21.[Na+],10.2
8,CC1(C)Oc2cc3oc(=O)cc([O-])c3cc2-c2ccccc21.[Na+],10.2
9,Cc1c2c(cc3oc(=O)cc([O-])c13)OC(C)(C)c1ccccc1-2.[Na+],4.8
10,CC1(C)Oc2cc3oc(=O)cc([O-])c3cc2-c2ccc(OCCO)cc21.[Na+],11
11,CCCOc1ccc2c(c1)C(C)(C)Oc1cc3oc(=O)cc([O-])c3cc1-2.[Na+],4.7

# System: Rattus norvegicus
# Assay: Antiallergic activity in adrenalectomized Sprague-Dawley rat assessed as inhibition of egg albumin-induced passive cutaneous anaphylaxis reaction at 10 mg/kg, iv after 30 mins by Evans blue staining
# Type: functional
# Details: 0.5 h
row,SMILES,inhibition in vivo at 10 mg/kg [%]
1,CC1(C)Oc2cc3oc(C(=O)O)cc(=O)c3cc2-c2ccccc21.NCCO,81
2,COc1ccc2c(c1)C(C)(C)Oc1cc3oc(=O)cc([O-])c3cc1-2.[Na+],67
3,CN1CCC(=C2c3ccccc3C=Cc3ccccc32)CC1 [CYPROHEPTADINE],51
4,O=C([O-])c1cc(=O)c2c(OCC(O)COc3cccc4oc(C(=O)[O-])cc(=O)c34)cccc2o1.[Na+].[Na+] [CROMOLYN SODIUM],80
5,COc1cc2c(cc1Br)-c1cc3c([O-])cc(=O)oc3cc1OC2(C)C.[Na+],33
6,CC1(C)Oc2cc3oc(=O)cc([O-])c3cc2-c2ccc(O)cc21.[Na+],61
7,CC1(C)Oc2cc3oc(=O)cc(O)c3cc2-c2ccc(F)cc21,60
8,CC1(C)Oc2cc3oc(=O)cc([O-])c3cc2-c2ccc(Cl)cc21.[Na+],0
9,CC1(C)Oc2cc3oc(=O)cc([O-])c3cc2-c2ccccc21.[Na+],67
10,Cc1c2c(cc3oc(=O)cc([O-])c13)OC(C)(C)c1ccccc1-2.[Na+],0
11,CC1(C)Oc2cc3oc(=O)cc([O-])c3cc2-c2ccc(OCCO)cc21.[Na+],87
12,CCCOc1ccc2c(c1)C(C)(C)Oc1cc3oc(=O)cc([O-])c3cc1-2.[Na+],0

# System: Ileum
# Assay: Antiallergic activity in guinea pig ileum strips assessed as inhibition of histamine-induced anaphylaxis
# Type: functional, tissue-based
# Details: Cavia porcellus
row,SMILES,EC50 [µg/mL]
1,CC1(C)Oc2cc3oc(C(=O)O)cc(=O)c3cc2-c2ccccc21.NCCO,150
2,COc1ccc2c(c1)C(C)(C)Oc1cc3oc(=O)cc([O-])c3cc1-2.[Na+],13.2
3,CN1CCC(=C2c3ccccc3C=Cc3ccccc32)CC1 [CYPROHEPTADINE],0.04
4,O=C([O-])c1cc(=O)c2c(OCC(O)COc3cccc4oc(C(=O)[O-])cc(=O)c34)cccc2o1.[Na+].[Na+] [CROMOLYN SODIUM],> 200
5,COc1cc2c(cc1Br)-c1cc3c([O-])cc(=O)oc3cc1OC2(C)C.[Na+],39
6,CC1(C)Oc2cc3oc(=O)cc([O-])c3cc2-c2ccc(O)cc21.[Na+],> 200
7,CC1(C)Oc2cc3oc(=O)cc([O-])c3cc2-c2ccc(Cl)cc21.[Na+],21
8,CC1(C)Oc2cc3oc(=O)cc([O-])c3cc2-c2ccccc21.[Na+],55
9,Cc1c2c(cc3oc(=O)cc([O-])c13)OC(C)(C)c1ccccc1-2.[Na+],14.5
10,CC1(C)Oc2cc3oc(=O)cc([O-])c3cc2-c2ccc(OCCO)cc21.[Na+],> 200
11,CCCOc1ccc2c(c1)C(C)(C)Oc1cc3oc(=O)cc([O-])c3cc1-2.[Na+],7

# System: not listed separately
# Assay: Antiallergic activity in guinea pig lung tissue assessed as inhibition of SRS-A production
# Type: functional, tissue-based, Cavia porcellus
# Details: not given
row,SMILES,EC50 [µg/mL]
1,CC1(C)Oc2cc3oc(C(=O)O)cc(=O)c3cc2-c2ccccc21.NCCO,32
2,CN1CCC(=C2c3ccccc3C=Cc3ccccc32)CC1 [CYPROHEPTADINE],< 1
3,O=C([O-])c1cc(=O)c2c(OCC(O)COc3cccc4oc(C(=O)[O-])cc(=O)c34)cccc2o1.[Na+].[Na+] [CROMOLYN SODIUM],> 200
4,COc1cc2c(cc1Br)-c1cc3c([O-])cc(=O)oc3cc1OC2(C)C.[Na+],28
5,CC1(C)Oc2cc3oc(=O)cc([O-])c3cc2-c2ccc(O)cc21.[Na+],13

# System: Stomach
# Assay: Antiallergic activity in rat stomach strips assessed as inhibition of […]-induced anaphylaxis at 100 ug/ml
# Type: functional
# Details: not given
row,SMILES,inhibition at 100 µg/mL [%]
1,CN1CCC(=C2c3ccccc3C=Cc3ccccc32)CC1 [CYPROHEPTADINE],74

# System: not listed separately
# Assay: Antiallergic activity in guinea pig lung tissue assessed as inhibition of SRS-A production at 1 ug/ml
# Type: functional
# Details: Cavia porcellus
row,SMILES,inhibition at 1 µg/mL [%]
1,CN1CCC(=C2c3ccccc3C=Cc3ccccc32)CC1 [CYPROHEPTADINE],62

# System: Stomach
# Assay: Antiallergic activity in rat stomach strips assessed as inhibition of […]-induced anaphylaxis at 25 ug/ml
# Type: functional
# Details: not given
row,SMILES,inhibition at 25 µg/mL [%]
1,CN1CCC(=C2c3ccccc3C=Cc3ccccc32)CC1 [CYPROHEPTADINE],33
